Assay results: the NIST ThermoML archive (doi:10.1016/j.jct.2016.10.023)

Test: xn = mol fraction of the nth substance listed
Settings: Constant-volume piezometry

CCCCC [pentane] + CCCO
Settings | mass density [kg/m3]
463.15 K, 1134 kPa, Gas, x1 = 0.8 | 22.59
463.15 K, 1296 kPa, Gas, x1 = 0.2 | 25
463.15 K, 1450 kPa, Gas, x1 = 0.5 | 30.07
463.15 K, 1641 kPa, Gas, x1 = 0.8 | 36.79
463.15 K, 1866 kPa, Gas, x1 = 0.5 | 40.6
463.15 K, 2150 kPa, Gas, x1 = 0.5 | 51.24
463.15 K, 2308 kPa, Gas, x1 = 0.8 | 58.58
463.15 K, 2637 kPa, Gas, x1 = 0.8 | 74
463.15 K, 2727 kPa, Gas, x1 = 0.9 | 83.62
463.15 K, 3075 kPa, Liquid, x1 = 0.5 | 452.77
463.15 K, 3080 kPa, Gas, x1 = 0.8 | 106.71
463.15 K, 3117 kPa, Liquid, x1 = 0.9 | 355.23
463.15 K, 3523 kPa, Liquid, x1 = 0.2 | 549.04
463.15 K, 3571 kPa, Liquid, x1 = 0.5 | 459.88
463.15 K, 4516 kPa, Liquid, x1 = 0.5 | 469.76
463.15 K, 5048 kPa, Liquid, x1 = 0.9 | 408.62
463.15 K, 5052 kPa, Liquid, x1 = 0.9 | 408.62
463.15 K, 5310 kPa, Liquid, x1 = 0.8 | 419.58
463.15 K, 10451 kPa, Liquid, x1 = 0.5 | 508.36
463.15 K, 11344 kPa, Liquid, x1 = 0.8 | 468.31
463.15 K, 12276 kPa, Liquid, x1 = 0.2 | 583.56
463.15 K, 12696 kPa, Liquid, x1 = 0.5 | 521.23
463.15 K, 17686 kPa, Liquid, x1 = 0.2 | 597.23
463.15 K, 17835 kPa, Liquid, x1 = 0.8 | 497.88
463.15 K, 20989 kPa, Liquid, x1 = 0.5 | 550.21
463.15 K, 26488 kPa, Liquid, x1 = 0.2 | 616.73
463.15 K, 26685 kPa, Liquid, x1 = 0.8 | 522.53
463.15 K, 33534 kPa, Liquid, x1 = 0.5 | 576.47
463.15 K, 41577 kPa, Liquid, x1 = 0.8 | 550.2
463.15 K, 41859 kPa, Liquid, x1 = 0.2 | 637.82
464.15 K, 3225 kPa, Liquid, x1 = 0.9 | 355.21
465.15 K, 3139 kPa, Gas, x1 = 0.9 | 123.69
466.15 K, 3167 kPa, Gas, x1 = 0.9 | 123.69
468.15 K, 2722 kPa, Gas, x1 = 0.5 | 72.79
468.15 K, 3224 kPa, Gas, x1 = 0.9 | 123.67
468.15 K, 3337 kPa, Liquid, x1 = 0.5 | 442.3
468.15 K, 3480 kPa, Liquid, x1 = 0.8 | 346.36
468.15 K, 3796 kPa, Liquid, x1 = 0.8 | 362.98
469.15 K, 3297 kPa, Gas, x1 = 0.9 | 134.47
469.15 K, 3585 kPa, Liquid, x1 = 0.8 | 346.34
470.15 K, 2757 kPa, Gas, x1 = 0.5 | 72.78
470.15 K, 3441 kPa, Liquid, x1 = 0.9 | 310.06
470.15 K, 3577 kPa, Liquid, x1 = 0.9 | 332
473.15 K, 846 kPa, Gas, x1 = 0.5 | 15.56
473.15 K, 1166 kPa, Gas, x1 = 0.8 | 22.58
473.15 K, 1339 kPa, Gas, x1 = 0.2 | 24.99
473.15 K, 1500 kPa, Gas, x1 = 0.5 | 30.05
473.15 K, 1696 kPa, Gas, x1 = 0.8 | 36.78
473.15 K, 1943 kPa, Gas, x1 = 0.5 | 40.58
473.15 K, 2238 kPa, Gas, x1 = 0.5 | 51.21
473.15 K, 2408 kPa, Gas, x1 = 0.8 | 58.55
473.15 K, 2703 kPa, Gas, x1 = 0.5 | 67.68
473.15 K, 2775 kPa, Gas, x1 = 0.8 | 73.97
473.15 K, 2808 kPa, Gas, x1 = 0.5 | 72.77
473.15 K, 2888 kPa, Gas, x1 = 0.9 | 83.58
473.15 K, 3309 kPa, Gas, x1 = 0.8 | 106.65
473.15 K, 3339 kPa, Liquid, x1 = 0.5 | 418.35
473.15 K, 3349 kPa, Gas, x1 = 0.9 | 123.64
473.15 K, 3414 kPa, Gas, x1 = 0.9 | 134.44
473.15 K, 3511 kPa, Gas, x1 = 0.9 | 164.35
473.15 K, 3553 kPa, Gas, x1 = 0.9 | 189.91
473.15 K, 3564 kPa, Gas, x1 = 0.9 | 202.87

Liquid
Settings | mass density [kg/m3]
463.55 K, x1 = 0.8 | 363.07
466.15 K, x1 = 0.5 | 442.34
467.15 K, x1 = 0.8 | 346.37
467.15 K, x1 = 0.9 | 334.99
470.15 K, x1 = 0.8 | 334.76
470.15 K, x1 = 0.9 | 313.16
470.85 K, x1 = 0.9 | 302.48
471.25 K, x1 = 0.9 | 282.74
471.95 K, x1 = 0.9 | 244.86
472.05 K, x1 = 0.9 | 241.54
472.15 K, x1 = 0.9 | 237.12
472.65 K, x1 = 0.8 | 316.17
